Like-named read-outs stand apart in the source and are kept apart here.
Experiments:
[1] = tested on: Erysiphe graminis tritici (powdery mildew); assay: Test 1 greenhouse foliar spray screen, powdery mildew on wheat; format: in vivo
[2] = tested on: Botrytis cinerea (gray mold); assay: Test 1 greenhouse foliar spray screen, gray mold on grape berries; format: in vivo; settings: for GRAY MOLD: disease control rating, spray on grape berries, 400 ppm (+++ at 100 ppm); for pest or weed control at 400 ppm: Botrytis cinerea, foliar, Test 1, spray on grape berries, disease control rating at 400 ppm / 100 ppm
[3] = tested on: Twospotted spider mites (Tetranychus urticae Koch); assay: Mite/insect screen, SM; format: in vivo
How it was run: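 Foliar spray to runoff (10 psi), 1 h drying; aqueous dilutions from acetone/alcohol emulsifier stock. Mortality (%) after standard exposure.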

[4] = tested on: Plasmopara viticola; assay: Field tests against plant pathogens; format: in vivo; settings: field test, crop grape
Source text: (§1) Selected compounds were field tested against a variety of plant pathogens. […]

[5] = tested on: Puccinia recondita; assay: Field tests against plant pathogens; format: in vivo; settings: field test, crop wheat
Source text: as §1

[6] = tested on: Rhynchosporium secalis; assay: Field tests against plant pathogens; format: in vivo; settings: field test, crop barley
Source text: as §1

[7] = tested on: Puccinia recondita tritici (leaf rust); assay: Test 1 greenhouse foliar spray screen, leaf rust on wheat; format: in vivo
[8] = tested on: corn rootworm; assay: Mite/insect screen, CRW; format: in vivo; settings: percent mortality, read-out: CRW RESULTS %
How it was run: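 Read-out: % mortality after standard exposure. Formulation: acetone/alcohol (50:50) with emulsifiers at 23 g and 13 g per liter, water-diluted to final test levels.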

[9] = tested on: Cercospora beticola (leaf spot); assay: Test 1 greenhouse foliar spray screen, leaf spot on sugar beet; format: in vivo; settings: for LEAF SPOT: disease control rating, foliar spray on sugar beet, 400 ppm (+++ at 100 ppm); for pest or weed control at 400 ppm: Cercospora beticola, Test 1, foliar spray on sugar beet, disease control rating at 400 ppm / 100 ppm
[10] = tested on: Septoria tritici (leaf blotch); assay: Test 1 greenhouse foliar spray screen, leaf blotch on wheat; format: in vivo; settings: for LEAF BLOT: disease control rating, foliar spray on wheat, 400 ppm (+++ at 100 ppm); for pest or weed control at 400 ppm: Zymoseptoria tritici, Test 1, foliar spray on wheat, disease control rating at 400 ppm / 100 ppm, read-out: LEAF BLOT
[11] = tested on: southern armyworm (Spodopetra eridania Cramer); assay: Mite/insect screen, SAW; format: in vivo; settings: percent mortality
How it was run: (§2)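 Read-out: percent mortality after standard exposure periods. Test solutions were water dilutions of compound dissolved in acetone/alcohol (50:50) with emulsifier blends; leaves were sprayed to runoff on both surfaces and air-dried for one hour before exposure.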

[12] = tested on: melon aphids (Aphis gossypii Glover); assay: Mite/insect screen, MA; format: in vivo; settings: percent mortality
How it was run: as §2

[13] = tested on: Venturia inaequalis (apple scab); assay: Test 1 greenhouse foliar spray screen, apple scab on apple seedling; format: in vivo; settings: for APPL SCAB: disease control rating, foliar spray on apple seedling, 400 ppm (+++ at 100 ppm); for pest or weed control at 400 ppm: Venturia inaequalis, Test 1, foliar spray on apple seedling, disease control rating at 400 ppm / 100 ppm, read-out: APPL SCAB
[14] = tested on: Pyricularia oryzae (rice blast); assay: whole plant or invertebrate; format: in vivo; settings: for activity against rice blast: summary statement in the description
[15] = tested on: Pseudoperonospora cubensis (downy mildew); assay: Test 1 greenhouse foliar spray screen, downy mildew on squash; format: in vivo; settings: for activity against downy mildew: summary statement in the description
[16] = tested on: Sphaerotheca fuliginea; assay: Field tests against plant pathogens; format: in vivo; settings: field test, crop cucumber
Source text: as §1

[17] = tested on: Pyrenophora teres; assay: Field tests against plant pathogens; format: in vivo; settings: field test, crop barley
Source text: as §1

[18] = tested on: Erysiphe graminis tritici; assay: Field tests against plant pathogens; format: in vivo; settings: field test, crop wheat
Source text: as §1

[19] = tested on: Pseudocercosporella herpotrichoides; assay: Field tests against plant pathogens; format: in vivo; settings: field test, crop wheat
Source text: as §1

[20] = tested on: plant pathogens; assay: Fungicidal efficacy against a broad spectrum of plant pathogens (summary of screen); format: in vivo; settings: summary statement in the description
[21] = tested on: Phytophthora infestans; format: in vivo; settings: field test
[22] = tested on: Alternaria brassica; assay: Field tests against plant pathogens; format: in vivo; settings: field test, crop rape
Source text: as §1

[23] = tested on: CUCURBIT POWDERY MILDEW; assay: Greenhouse combination test with known fungicide, foliar spray; settings: 1-9 rating scale, time 4 hours
Method: (§3) The test compounds were formulated for application by dissolving 50 mg of the compound into 1.25 ml of solvent. The solvent was prepared by mixing 50 ml of "Tween 20" with 475 ml of acetone and 475 ml of ethanol. The solvent/compound solution was diluted to 125 ml with deionized water. The resulting formulation contains 400 ppm test chemical. Lower concentrations were obtained by serial dilution with the solvent-surfactant mixture.
(§4) The formulated technical compounds were sprayed on all foliar surfaces of the host plants (or cut berry) to past run-off. Single pots of each host plant were placed on raised, revolving pedestals in a fume hood. Test solutions were sprayed on all foliar surfaces. All treatments were allowed to dry and the plants were inoculated with the appropriate pathogens within 2-4 hours.
(§5) In the tables, the time given under "Time in hours" is the number of hours elapsing between treatment and inoculation. […] In such cases, curative activity was being tested. […] In such cases, residual or protectant activity was tested. […] The results were evaluated on a 1-9 rating scale. These ratings represent the following percent disease control: 1 = 0-19%, 2 = 20-29%, 3 = 30-39%, 4 = 40-59%, 5 = 60-74%, 6 = 75-89%, 7 = 90-96%, 8 = 97-99%, and 9 = 100%.

[24] = tested on: CUCURBIT DOWNY MILDEW; assay: as above; settings: 1-9 rating scale
Method: as §3, §4, §5

[25] = disease control rating, foliar spray on wheat, 400 ppm (+++ at 100 ppm)
[26] = Tetranychus urticae, percent mortality, SAW, SM & MA RATE 200 PPM, read-out: SM RESULTS %
[27] = Spodoptera eridania, SAW, SM & MA RATE 200 PPM, read-out: SAW RESULTS %
[28] = Aphis gossypii, SAW, SM & MA RATE 200 PPM, read-out: MA RESULTS %
[29] = disease control rating, foliar spray on rice, 400 ppm (+++ at 100 ppm)
[30] = disease control rating, foliar spray on squash, 400 ppm (+++ at 100 ppm)
[31] = Test 1, foliar spray on wheat, disease control rating at 400 ppm / 100 ppm
[32] = Spodoptera eridania, foliar, rate 200 ppm, foliar spray on squash, read-out: SAW RESULTS %
[33] = rate 400 ppm, foliar spray on squash

SMILES | POWD MDEW [1, 25] | GRAY MOLD [2] | mortality at 200 ppm [3, 26] [%] | pathogens against which compounds of the invention showed activity [4] | pathogens against which compounds of the invention showed activity [6] | LEAF RUST [7, 25] | mortality at 12 ppm ([8]; CRW RATE 12.00 PPM) [%] | LEAF SPOT [9] | LEAF BLOT [10] | mortality at 200 ppm [11, 27] [%] | mortality at 200 ppm [12, 28] [%] | APPL SCAB [13] | RICE BLAST [14, 29] | DOWN MDEW [15, 30] | activity against downy mildew [15] | pathogens against which compounds of the invention showed activity [16] | pathogens against which compounds of the invention showed activity [17] | pathogens against which compounds of the invention showed activity [18] | pathogens against which compounds of the invention showed activity [19] | activity against rice blast [14] | other results
Fc1cccc2c(NCCc3ccc4ccccc4c3)ccnc12 [Example 159, 8-fluoro-N-[2-(2-naphthyl)ethyl]-4-quinolinamine] | ++ (90-100% control at 400 ppm) | - (0-19% control at 400 ppm) | 0 | Plasmopara viticola | Rhynchosporium secalis | +++ (90-100% control at 100 ppm) | 0 | + (20-89% control at 400 ppm) | +++ (90-100% control at 100 ppm) | 0 | 0 | - (0-19% control at 400 ppm) | +++ (90-100% control at 100 ppm) | +++ (90-100% control at 100 ppm) | particularly excellent activity | – | – | – | – | – | pathogens against which compounds of the invention showed activity [5]: Puccinia recondita
Fc1cccc2c(OCCc3ccc(-c4ccccc4)cc3)ccnc12 [Example 200] | – | – | – | – | Rhynchosporium secalis | – | – | – | – | – | – | – | – | – | – | Sphaerotheca fuliginea | Pyrenophora teres | Erysiphe graminis tritici | Pseudocercosporella herpotrichoides | particularly excellent activity | POWD MDEW [1, 31]: +++ (90-100% control at 100 ppm); pest or weed control at 400 ppm [2]: 0 to 19%; SM RESULTS % ([3]; percent mortality, rate 200 ppm, foliar spray on squash): 100%; SM RESULTS % ([3]; percent mortality, rate 400 ppm, foliar spray on squash): 100%; activity as miticides ([3]; summary statement in the description): particularly excellent activity; LEAF RUST [7, 31]: +++ (90-100% control at 100 ppm); mortality at 12 ppm ([8]; CRW rate 12.00 ppm): 0%; mortality at 24 ppm ([8]; CRW rate 24.00 ppm): 0%; pest or weed control at 400 ppm [9]: 20 to 89%; pest or weed control at 400 ppm [10]: 90 to 100%; mortality at 200 ppm [11, 32]: 0%; SAW RESULTS % [11, 33]: 50%; MA RESULTS % ([12]; rate 200 ppm, foliar spray on squash): 100%; MA RESULTS % [12, 33]: 100%; pest or weed control at 400 ppm [13]: 20 to 89%; RICE BLAST ([14]; Test 1, foliar spray on rice, disease control rating at 400 ppm / 100 ppm): +++ (90-100% control at 100 ppm); DOWN MDEW ([15]; Test 1, foliar spray on squash, disease control rating at 400 ppm / 100 ppm): + (20-89% control at 400 ppm)
Fc1cccc2c(OCCc3ccccc3)ccnc12 [Example 219, 8-fluoro-4-(2-phenylethoxy)quinoline] | – | – | – | – | Rhynchosporium secalis | – | – | – | – | – | – | – | – | – | – | Sphaerotheca fuliginea | Pyrenophora teres | Erysiphe graminis tritici | Pseudocercosporella herpotrichoides | – | pest or weed control at 400 ppm ([1]; Blumeria graminis, foliar, Test 1, foliar spray on wheat, disease control rating at 400 ppm / 100 ppm, read-out: POWD MDEW): 90 to 100%; pest or weed control at 400 ppm [2]: 0 to 19%; mortality at 200 ppm ([3]; Tetranychus urticae, foliar, percent mortality, rate 200 ppm, foliar spray on squash, read-out: SM RESULTS %): 0%; activity against a broad spectrum of plant pathogens [20]: particularly excellent activity; pest or weed control at 400 ppm ([7]; Puccinia recondita, foliar, Test 1, foliar spray on wheat, disease control rating at 400 ppm / 100 ppm): 90 to 100%; mortality at 12 ppm ([8]; CRW rate 12.00 ppm): 0%; pest or weed control at 400 ppm [9]: 20 to 89%; pest or weed control at 400 ppm [10]: 20 to 89%; mortality at 200 ppm [11, 32]: 0%; mortality at 200 ppm ([12]; Aphis gossypii, foliar, rate 200 ppm, foliar spray on squash, read-out: MA RESULTS %): 0%; pest or weed control at 400 ppm [13]: 20 to 89%; pest or weed control at 400 ppm ([14]; Pyricularia oryzae, foliar, read-out: RICE BLAST, Test 1, foliar spray on rice, disease control rating at 400 ppm / 100 ppm): 90 to 100%; pest or weed control at 400 ppm ([15]; Pseudoperonospora cubensis, foliar, Test 1, foliar spray on squash, disease control rating at 400 ppm / 100 ppm, read-out: DOWN MDEW): 90 to 100%
Fc1cccc2c(NCCc3ccccc3)ccnc12 [Example 5, 8-fluoro-N-(2-phenylethyl)-4-quinolinamine] | ++ (90-100% control at 400 ppm) | - (0-19% control at 400 ppm) | 0 | Plasmopara viticola | Rhynchosporium secalis | +++ (90-100% control at 100 ppm) | 0 | – | +++ (90-100% control at 100 ppm) | 0 | 0 | - (0-19% control at 400 ppm) | ++ (90-100% control at 400 ppm) | +++ (90-100% control at 100 ppm) | particularly excellent activity | Sphaerotheca fuliginea | Pyrenophora teres | – | – | particularly excellent activity | pathogens against which compounds of the invention showed activity ([21]; crop potato): Phytophthora infestans; pathogens against which compounds of the invention showed activity ([21]; crop tomato): Phytophthora infestans; pathogens against which compounds of the invention showed activity [22]: Alternaria brassica; RESULTS ([23]; Ex. 5 alone 6.00 ppm): 1.0; RESULTS ([23]; Ex. 5 alone 12.00 ppm): 1.0; RESULTS ([23]; Ex. 5 alone 24.00 ppm): 5.0; RESULTS ([23]; Ex. 5 alone 48.00 ppm): 6.0; RESULTS ([24]; Ex. 5 alone 6.00 ppm, time 4 hours): 1.0; RESULTS ([24]; Ex. 5 alone 12.00 ppm, time 4 hours): 7.0; RESULTS ([24]; Ex. 5 alone 24.00 ppm, time 4 hours): 7.5; RESULTS ([24]; Ex. 5 alone 48.00 ppm, time 4 hours (treatment before inoculation)): 8.0
CC(=O)N(CCc1ccc(Cl)cc1)c1ccnc2c(F)cccc12 [Example 10, N-[2-(4-chlorophenyl)ethyl]-N-(8-fluoro-4-quinolinyl)acetamide] | ++ (90-100% control at 400 ppm) | - (0-19% control at 400 ppm) | 0 | – | Rhynchosporium secalis | +++ (90-100% control at 100 ppm) | 0 | +++ (90-100% control at 100 ppm) | +++ (90-100% control at 100 ppm) | 0 | 0 | - (0-19% control at 400 ppm) | +++ (90-100% control at 100 ppm) | ++ (90-100% control at 400 ppm) | – | Sphaerotheca fuliginea | Pyrenophora teres | Erysiphe graminis tritici | Pseudocercosporella herpotrichoides | particularly excellent activity | mortality at 400 ppm ([3]; Tetranychus urticae, percent mortality, SAW, SM & MA RATE 400 PPM, read-out: SM RESULTS %): 0%; mortality at 24 ppm ([8]; CRW RATE 24.00 PPM): 0%; mortality at 400 ppm ([11]; Spodoptera eridania, SAW, SM & MA RATE 400 PPM, read-out: SAW RESULTS %): 0%; mortality at 400 ppm ([12]; Aphis gossypii, SAW, SM & MA RATE 400 PPM, read-out: MA RESULTS %): 0%
